Earlier results, collected in patent US11596693B2, “Antibody-drug conjugates and uses thereof” (priority 2019, dated 2023).
Square brackets hold non-standard residues; d marks the D form. Peptide text beside a SMILES is read from it. * marks the point of attachment. Dolaproine = CO[C@@H]([C@@H]1CCCN1)[C@@H](C)C(=O)O; Dil = CC[C@H](C)[C@H](NC)[C@@H](CC(=O)O)OC; X1 = C[C@@H](N*)[C@@H](O)c1ccccc1; NMeV = CN[C@H](C(=O)O)C(C)C

How the values were obtained:
[1] = tested on: human-derived cancer cell lines; conditions: read-out: median inhibitory concentration
[2] = tested on: many cells; conditions: for many cells

IC50 [1] | SMILES | IC50 [2]
100 to 200 nM | COc1cccc2c1C(=O)c1c(O)c3c(c(O)c1C2=O)C[C@@](O)(C(=O)CO)C[C@@H]3O[C@H]1C[C@H](N)[C@H](O)[C@H](C)O1 [doxorubicins, Doxorubicin] | 
 | COc1cc2cc(c1Cl)N(C)C(=O)CC(OC(=O)[C@H](C)N(C)C(=O)CCC(C)(C)S)C1(C)OC1C(C)C1CC(O)(NC(=O)O1)C(OC)/C=C/C=C(\C)C2 (stereo partly shown) [DM4] | ~0.001 nM
 | COc1cc2cc(c1Cl)N(C)C(=O)CC(OC(=O)[C@H](C)N(C)C(=O)CCS)C1(C)OC1C(C)C1CC(O)(NC(=O)O1)C(OC)/C=C/C=C(\C)C2 (stereo partly shown) [DM1] | ~0.01 nM
 | CC[C@H](C)[C@@H]([C@@H](CC(=O)N1CCC[C@H]1[C@H](OC)[C@@H](C)C(=O)N[C@H](C)[C@@H](O)c1ccccc1)OC)N(C)C(=O)[C@@H](NC(=O)[C@@H](NC)C(C)C)C(C)C [MMAE, Monomethyl auristatin E] (H-[NMeV]V[Dil][Dolaproine]-X1) | 0.01 to 1 nM
